Where two headings read alike, the source gives them in different places.
Key:
Assay type in all cases: binding
[1] = target: T1, HeLa cell extract proteins (Homo sapiens, UniProt Q8IWA4)
T1 construct: endogenous in cells; host or cells: HeLa cell extract
T1 sequence (Q8IWA4 1-741): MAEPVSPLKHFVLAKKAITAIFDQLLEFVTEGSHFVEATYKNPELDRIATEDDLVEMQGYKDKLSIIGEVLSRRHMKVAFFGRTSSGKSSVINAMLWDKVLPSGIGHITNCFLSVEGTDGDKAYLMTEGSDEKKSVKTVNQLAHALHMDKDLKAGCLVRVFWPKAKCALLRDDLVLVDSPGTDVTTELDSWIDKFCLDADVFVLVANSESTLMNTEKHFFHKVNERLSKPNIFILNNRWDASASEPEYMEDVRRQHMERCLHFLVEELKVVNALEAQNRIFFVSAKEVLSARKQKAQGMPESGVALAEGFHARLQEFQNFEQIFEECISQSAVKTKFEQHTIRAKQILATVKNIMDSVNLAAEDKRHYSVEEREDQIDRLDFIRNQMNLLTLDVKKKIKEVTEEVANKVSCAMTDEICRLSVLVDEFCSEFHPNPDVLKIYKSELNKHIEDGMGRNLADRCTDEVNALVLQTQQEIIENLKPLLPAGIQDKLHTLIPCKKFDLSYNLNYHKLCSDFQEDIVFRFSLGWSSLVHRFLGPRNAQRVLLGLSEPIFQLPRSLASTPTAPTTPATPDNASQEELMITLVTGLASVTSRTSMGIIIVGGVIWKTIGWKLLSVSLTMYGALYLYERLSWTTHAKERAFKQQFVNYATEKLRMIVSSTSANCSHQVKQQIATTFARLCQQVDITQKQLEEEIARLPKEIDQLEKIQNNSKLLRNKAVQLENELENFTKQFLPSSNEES

[2] = target: T2, HeLa cell extract proteins (Homo sapiens, UniProt P49257); conditions: protein LMAN1; HeLa
T2 construct: endogenous in cells; host or cells: HeLa cell extract
T2 sequence (P49257 31-510): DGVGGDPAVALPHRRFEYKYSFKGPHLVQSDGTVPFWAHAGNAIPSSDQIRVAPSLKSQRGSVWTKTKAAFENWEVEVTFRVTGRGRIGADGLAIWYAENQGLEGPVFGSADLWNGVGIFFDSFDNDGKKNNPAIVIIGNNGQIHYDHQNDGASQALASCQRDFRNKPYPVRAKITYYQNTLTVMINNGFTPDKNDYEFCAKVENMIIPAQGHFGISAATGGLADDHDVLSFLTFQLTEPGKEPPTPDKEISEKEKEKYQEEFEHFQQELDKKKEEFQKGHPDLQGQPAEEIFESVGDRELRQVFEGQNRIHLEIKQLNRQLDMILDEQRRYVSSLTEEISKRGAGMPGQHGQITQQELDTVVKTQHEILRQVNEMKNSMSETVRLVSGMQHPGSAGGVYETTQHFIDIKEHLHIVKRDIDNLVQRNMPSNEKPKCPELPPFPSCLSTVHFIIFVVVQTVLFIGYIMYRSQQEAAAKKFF

[3] = target: T3, HeLa cell extract proteins (Homo sapiens, UniProt P36957); conditions: protein DLST; HeLa
T3 construct: endogenous in cells; host or cells: HeLa cell extract
T3 sequence (P36957 68-453): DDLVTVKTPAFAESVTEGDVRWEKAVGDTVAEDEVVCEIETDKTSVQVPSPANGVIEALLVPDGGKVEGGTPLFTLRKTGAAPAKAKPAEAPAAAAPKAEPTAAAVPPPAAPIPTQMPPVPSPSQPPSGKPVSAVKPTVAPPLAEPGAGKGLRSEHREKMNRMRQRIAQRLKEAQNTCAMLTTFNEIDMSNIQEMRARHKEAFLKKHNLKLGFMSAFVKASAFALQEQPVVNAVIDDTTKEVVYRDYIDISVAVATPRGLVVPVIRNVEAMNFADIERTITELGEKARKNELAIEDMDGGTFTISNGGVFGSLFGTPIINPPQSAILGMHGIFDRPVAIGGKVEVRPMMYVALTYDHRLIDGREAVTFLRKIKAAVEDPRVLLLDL

[4] = target: T4, HeLa cell extract proteins (Homo sapiens, UniProt O00483); conditions: captured protein NDUFA4; HeLa
T4 construct: endogenous in cells; host or cells: HeLa cell extract

[5] = target: T5, HeLa cell extract proteins (Homo sapiens, UniProt Q9UIA9); conditions: HeLa; protein XPO7
T5 construct: endogenous in cells; host or cells: HeLa cell extract
T5 sequence (Q9UIA9 1-1087): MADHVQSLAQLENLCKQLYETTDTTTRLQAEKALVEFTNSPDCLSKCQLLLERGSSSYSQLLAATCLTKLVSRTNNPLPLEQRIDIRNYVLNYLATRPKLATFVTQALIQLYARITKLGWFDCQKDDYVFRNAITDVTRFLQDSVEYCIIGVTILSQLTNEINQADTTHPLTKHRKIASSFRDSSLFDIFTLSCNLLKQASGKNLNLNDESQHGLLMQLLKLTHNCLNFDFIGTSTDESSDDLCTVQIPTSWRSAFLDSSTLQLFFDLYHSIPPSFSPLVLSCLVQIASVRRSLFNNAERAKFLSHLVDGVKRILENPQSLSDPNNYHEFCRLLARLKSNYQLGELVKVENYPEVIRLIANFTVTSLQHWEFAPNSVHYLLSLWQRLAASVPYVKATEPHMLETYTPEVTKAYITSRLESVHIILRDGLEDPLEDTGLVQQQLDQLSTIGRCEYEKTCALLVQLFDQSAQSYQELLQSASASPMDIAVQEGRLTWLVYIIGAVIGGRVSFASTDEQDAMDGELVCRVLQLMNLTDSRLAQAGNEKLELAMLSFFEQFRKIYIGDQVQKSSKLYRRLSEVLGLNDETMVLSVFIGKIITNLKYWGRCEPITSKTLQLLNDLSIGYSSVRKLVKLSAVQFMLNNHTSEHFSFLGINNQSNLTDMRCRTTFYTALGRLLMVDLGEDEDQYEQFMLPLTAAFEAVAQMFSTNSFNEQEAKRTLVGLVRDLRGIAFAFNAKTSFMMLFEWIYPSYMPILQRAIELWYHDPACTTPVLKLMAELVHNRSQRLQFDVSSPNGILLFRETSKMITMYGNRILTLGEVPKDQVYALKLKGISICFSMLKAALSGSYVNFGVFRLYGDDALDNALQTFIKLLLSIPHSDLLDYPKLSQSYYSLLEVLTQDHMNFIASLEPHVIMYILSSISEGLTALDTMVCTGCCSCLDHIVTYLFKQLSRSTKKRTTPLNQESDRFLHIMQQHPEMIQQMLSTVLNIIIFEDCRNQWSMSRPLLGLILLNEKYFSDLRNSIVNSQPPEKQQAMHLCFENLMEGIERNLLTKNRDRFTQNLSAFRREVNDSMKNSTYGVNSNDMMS

T4 sequence (O00483 whole entry): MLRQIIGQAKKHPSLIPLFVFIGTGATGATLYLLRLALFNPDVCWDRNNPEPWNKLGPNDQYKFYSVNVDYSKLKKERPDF

Nc1nc2c(c(=O)[nH]1)N(C=O)C(CNc1ccc(C(=O)N[C@@H](CCC(=O)O)C(=O)O)cc1)CN2 (stereo partly shown) [LEU, leucovorin]
fold changes relative to vehicle control ([1]; protein MFN1, HeLa): 0.81

Nc1nc2[nH]cc(CCc3ccc(C(=O)N[C@@H](CCC(=O)O)C(=O)O)cc3)c2c(=O)[nH]1 [PTX, pemetrexed]
fold changes relative to vehicle control [1]: 0.89

CCCCCCOc1ccc(Cc2cnc(N)nc2N)cc1 [compound 1]
fold changes relative to vehicle control [2]: 1.17
fold changes relative to vehicle control [3]: 1.31
fold changes relative to vehicle control [4]: 0.8
fold changes relative to vehicle control [5]: 0.88

CCCCCCOc1cccc(Cc2cnc(N)nc2N)c1 [compound 2]
fold changes relative to vehicle control [2]: 1.57
fold changes relative to vehicle control [3]: 1.34
fold changes relative to vehicle control [4]: 1.17
fold changes relative to vehicle control [5]: 1.28

Nc1nc2cccc(-c3ccccc3)c2n1Cc1ccc(Cl)c(Cl)c1 [compound 3]
fold changes relative to vehicle control [2]: 0.87
fold changes relative to vehicle control [3]: 1.17
fold changes relative to vehicle control [4]: 0.82
fold changes relative to vehicle control [5]: 0.98

NCCOCCOCC(=O)Nc1nc2ncc(CNc3ccc(C(=O)NC(CCC(=O)O)C(=O)O)cc3)nc2c(=O)[nH]1 (stereo not shown) [compound 6]
fold changes relative to vehicle control ([1]; protein MFN1, HeLa): 0.99

NCCCNc1ccc(C(=O)NC(CCC(=O)O)C(=O)O)cc1 (stereo not shown) [compound 7]
fold changes relative to vehicle control ([1]; protein MFN1, HeLa): 1.02
